Experimental data taken from patent publication US20240083897A1, “GCN2 MODULATING COMPOUNDS AND USES THEREOF” (HiberCell, Inc., priority 2021, published 2024).
pIC50: −log10 of the molar value. Read-outs that look alike come from different tables or passages of the source.

Target: GCN2 (Homo sapiens (Human), UniProt Q9P2K8)
Assay: TR-FRET biochemical assay for inhibition of GCN2
[1] = GCN2 2 nM, 100 nM GFP-eIF2a, 150 μM ATP, TR-FRET

Sequence of GCN2 (Q9P2K8 whole entry): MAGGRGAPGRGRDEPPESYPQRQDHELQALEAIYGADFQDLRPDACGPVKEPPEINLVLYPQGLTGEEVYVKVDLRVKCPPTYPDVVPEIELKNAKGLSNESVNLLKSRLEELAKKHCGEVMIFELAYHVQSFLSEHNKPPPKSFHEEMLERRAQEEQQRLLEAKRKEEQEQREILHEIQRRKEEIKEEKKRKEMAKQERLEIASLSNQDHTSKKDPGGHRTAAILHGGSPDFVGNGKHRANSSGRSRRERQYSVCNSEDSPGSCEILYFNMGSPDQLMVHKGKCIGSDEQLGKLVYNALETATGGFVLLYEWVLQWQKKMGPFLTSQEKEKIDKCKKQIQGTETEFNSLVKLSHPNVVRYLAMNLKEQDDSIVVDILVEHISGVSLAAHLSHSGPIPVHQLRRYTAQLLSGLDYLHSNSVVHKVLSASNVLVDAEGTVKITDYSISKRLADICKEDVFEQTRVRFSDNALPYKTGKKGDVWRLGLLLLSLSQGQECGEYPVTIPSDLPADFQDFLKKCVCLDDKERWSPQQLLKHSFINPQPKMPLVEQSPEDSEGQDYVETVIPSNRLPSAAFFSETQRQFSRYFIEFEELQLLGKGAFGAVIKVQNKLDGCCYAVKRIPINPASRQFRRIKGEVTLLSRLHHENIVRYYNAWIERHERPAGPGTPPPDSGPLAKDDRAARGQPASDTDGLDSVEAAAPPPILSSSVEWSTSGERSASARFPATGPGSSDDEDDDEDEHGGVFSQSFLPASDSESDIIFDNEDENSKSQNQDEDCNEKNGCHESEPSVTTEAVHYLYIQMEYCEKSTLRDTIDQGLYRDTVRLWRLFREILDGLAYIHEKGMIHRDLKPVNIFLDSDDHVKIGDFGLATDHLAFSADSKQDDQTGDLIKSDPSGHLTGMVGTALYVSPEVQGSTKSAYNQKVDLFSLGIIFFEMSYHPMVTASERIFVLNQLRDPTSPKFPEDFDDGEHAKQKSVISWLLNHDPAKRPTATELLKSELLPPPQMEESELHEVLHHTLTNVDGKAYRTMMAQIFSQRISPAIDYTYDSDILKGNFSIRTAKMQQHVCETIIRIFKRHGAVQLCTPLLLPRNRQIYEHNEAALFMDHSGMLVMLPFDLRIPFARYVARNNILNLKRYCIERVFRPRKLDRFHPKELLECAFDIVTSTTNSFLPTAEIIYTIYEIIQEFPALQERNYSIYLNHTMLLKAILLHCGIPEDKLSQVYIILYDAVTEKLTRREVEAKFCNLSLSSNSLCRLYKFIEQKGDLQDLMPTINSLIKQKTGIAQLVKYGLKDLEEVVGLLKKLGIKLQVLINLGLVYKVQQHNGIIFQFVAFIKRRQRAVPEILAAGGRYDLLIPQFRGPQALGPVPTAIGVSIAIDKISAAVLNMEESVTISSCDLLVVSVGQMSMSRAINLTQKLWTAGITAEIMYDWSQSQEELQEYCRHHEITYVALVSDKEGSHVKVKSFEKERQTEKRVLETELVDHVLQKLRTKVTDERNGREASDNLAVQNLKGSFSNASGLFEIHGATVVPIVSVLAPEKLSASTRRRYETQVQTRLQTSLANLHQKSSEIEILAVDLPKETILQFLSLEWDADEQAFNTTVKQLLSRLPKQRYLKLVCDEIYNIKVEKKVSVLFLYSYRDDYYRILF

| SMILES | pIC50 [1] | pIC50 |
| --- | --- | --- |
| COc1ncc(F)cc1S(=O)(=O)Nc1ccc(F)c(-c2ccc3c(-c4nc(Cl)c[nH]4)ncn3c2F)c1F [Compound 115, N-[3-[1-(4-chloro-1H-imidazol-2-yl)-5-fluoroimidazo[1,5-a]pyridin-6-yl]-2,4-difluorophenyl]-5-fluoro-2-methoxypyridine-3-sulfonamide] | > 7.30 | – |
| COc1ncc(Cl)cc1S(=O)(=O)Nc1ccc(F)c(-c2ccc3c(-c4nc(Cl)c[nH]4)ncn3c2F)c1F [Compound 116, 5-chloro-N-[3-[1-(4-chloro-1H-imidazol-2-yl)-5-fluoroimidazo[1,5-a]pyridin-6-yl]-2,4-difluorophenyl]-2-methoxypyridine-3-sulfonamide] | > 7.30 | – |
| CNC(=O)c1ncn2cc(-c3c(F)ccc(NS(=O)(=O)c4cc(Cl)cnc4OC)c3C#N)ncc12 [Compound 117, 6-[3-(5-chloro-2-methoxypyridine-3-sulfonamido)-2-cyano-6-fluorophenyl]-N-methylimidazo[1,5-a]pyrazine-1-carboxamide] | – | 6.30 to 7.30 |
| COc1ncc(F)cc1S(=O)(=O)Nc1ccc(F)c(-c2ccc3c(-c4ccno4)ncn3c2)c1F [Compound 118, N-[2,4-difluoro-3-[1-(1,2-oxazol-5-yl)imidazo[1,5-a]pyridin-6-yl]phenyl]-5-fluoro-2-methoxypyridine-3-sulfonamide] | > 7.30 | – |
| COc1ncc(C#N)cc1S(=O)(=O)Nc1ccc(F)c(-c2ccc3c(-c4ccno4)ncn3c2)c1F [Compound 119, 5-cyano-N-[2,4-difluoro-3-[1-(1,2-oxazol-5-yl)imidazo[1,5-a]pyridin-6-yl]phenyl]-2-methoxypyridine-3-sulfonamide] | > 7.30 | – |
| CNC(=O)c1ncn2cc(-c3c(F)ccc(NS(=O)(=O)c4cc(Cl)cnc4OC)c3F)sc12 [Compound 120, 2-[3-(5-chloro-2-methoxypyridine-3-sulfonamido)-2,6-difluorophenyl]-N-methylimidazo[4,3-b][1,3]thiazole-7-carboxamide] | – | 6.00 to 6.30 |
| Cc1ncc(Cl)cc1S(=O)(=O)Nc1ccc(F)c(-c2ccc3c(-c4ccno4)ncn3c2)c1F [Compound 121, 5-chloro-N-[2,4-difluoro-3-[1-(1,2-oxazol-5-yl)imidazo[1,5-a]pyridin-6-yl]phenyl]-2-methylpyridine-3-sulfonamide] | > 7.30 | – |
| CNC(=O)c1ncn2cc(-c3c(F)ccc(NS(=O)(=O)c4cc(Cl)cnc4OC)c3C)ccc12 [Compound 122, 6-[3-(5-chloro-2-methoxypyridine-3-sulfonamido)-6-fluoro-2-methylphenyl]-N-methylimidazo[1,5-a]pyridine-1-carboxamide] | – | 6.30 to 7.30 |
| COc1ncc(C#N)cc1S(=O)(=O)Nc1ccc(F)c(-c2ccc3c(-c4nc5c([nH]4)CCCC5)ncn3c2)c1F [Compound 123, 5-cyano-N-[2,4-difluoro-3-[1-(4,5,6,7-tetrahydro-1H-1,3-benzodiazol-2-yl)imidazo[1,5-a]pyridin-6-yl]phenyl]-2-methoxypyridine-3-sulfonamide] | > 7.30 | – |
| COc1ncc(Cl)cc1S(=O)(=O)Nc1ccc(F)c(-c2cn3cnc(-c4nnc(C)[nH]4)c3cn2)c1F [Compound 124, 5-chloro-N-[2,4-difluoro-3-[1-(5-methyl-4H-1,2,4-triazol-3-yl)imidazo[1,5-a]pyrazin-6-yl]phenyl]-2-methoxypyridine-3-sulfonamide] | > 7.30 | – |
| Cc1ncc(F)cc1S(=O)(=O)Nc1ccc(F)c(-c2ccc3c(-c4ccno4)ncn3c2)c1F [Compound 125, N-[2,4-difluoro-3-[1-(1,2-oxazol-5-yl)imidazo[1,5-a]pyridin-6-yl]phenyl]-5-fluoro-2-methylpyridine-3-sulfonamide] | > 7.30 | – |
| COc1ncc(C#N)cc1S(=O)(=O)Nc1ccc(F)c(-c2ccc3c(-c4nc(C)c(C)[nH]4)ncn3c2)c1F [Compound 126, 5-cyano-N-[3-[1-(4,5-dimethyl-1H-imidazol-2-yl)imidazo[1,5-a]pyridin-6-yl]-2,4-difluorophenyl]-2-methoxypyridine-3-sulfonamide] | > 7.30 | – |
| COc1ncc(F)cc1S(=O)(=O)Nc1ccc(F)c(-c2cn3cnc(-c4nnc(C)[nH]4)c3cn2)c1F [Compound 127, N-[2,4-difluoro-3-[1-(5-methyl-4H-1,2,4-triazol-3-yl)imidazo[1,5-a]pyrazin-6-yl]phenyl]-5-fluoro-2-methoxypyridine-3-sulfonamide] | – | 6.30 to 7.30 |
| COc1ncc(C#N)cc1S(=O)(=O)Nc1ccc(F)c(-c2cn3cnc(-c4nnc(C)[nH]4)c3cn2)c1F [Compound 128, 5-cyano-N-[2,4-difluoro-3-[1-(5-methyl-4H-1,2,4-triazol-3-yl)imidazo[1,5-a]pyrazin-6-yl]phenyl]-2-methoxypyridine-3-sulfonamide] | – | 6.30 to 7.30 |
| Cc1nnc(-c2ncn3cc(-c4c(F)ccc(NS(=O)(=O)c5cc(F)cnc5C)c4F)ncc23)[nH]1 [Compound 129, N-[2,4-difluoro-3-[1-(5-methyl-4H-1,2,4-triazol-3-yl)imidazo[1,5-a]pyrazin-6-yl]phenyl]-5-fluoro-2-methylpyridine-3-sulfonamide] | > 7.30 | – |
| COc1ncc(Cl)cc1S(=O)(=O)Nc1ccc(F)c([C@@H]2CCc3c(-c4nnc(C)[nH]4)ncn3C2)c1F [Compound 130-1, 5-chloro-N-[2,4-difluoro-3-[(6S)-1-(5-methyl-4H-1,2,4-triazol-3-yl)-5H,6H,7H,8H-imidazo[1,5-a]pyridin-6-yl]phenyl]-2-methoxypyridine-3-sulfonamide] | > 7.30 | – |
| COc1ncc(Cl)cc1S(=O)(=O)Nc1ccc(F)c([C@H]2CCc3c(-c4nnc(C)[nH]4)ncn3C2)c1F [Compound 130-2, 5-chloro-N-[2,4-difluoro-3-[(6R)-1-(5-methyl-4H-1,2,4-triazol-3-yl)-5H,6H,7H,8H-imidazo[1,5-a]pyridin-6-yl]phenyl]-2-methoxypyridine-3-sulfonamide] | > 7.30 | – |
| COc1ncc(F)cc1S(=O)(=O)Nc1ccc(F)c([C@@H]2CCc3c(-c4nnc(C)[nH]4)ncn3C2)c1F [Compound 131-1, N-[2,4-difluoro-3-[(6S)-1-(5-methyl-4H-1,2,4-triazol-3-yl)-5H,6H,7H,8H-imidazo[1,5-a]pyridin-6-yl]phenyl]-5-fluoro-2-methoxypyridine-3-sulfonamide] | > 7.30 | – |
| COc1ncc(F)cc1S(=O)(=O)Nc1ccc(F)c([C@H]2CCc3c(-c4nnc(C)[nH]4)ncn3C2)c1F [Compound 131-2, N-[2,4-difluoro-3-[(6R)-1-(5-methyl-4H-1,2,4-triazol-3-yl)-5H,6H,7H,8H-imidazo[1,5-a]pyridin-6-yl]phenyl]-5-fluoro-2-methoxypyridine-3-sulfonamide] | > 7.30 | – |
| CNC(=O)c1ncn2cc(-c3c(F)ccc(NS(=O)(=O)c4cc(Cl)c[nH]c4=O)c3F)ncc12 [Compound 132, 6-(3-((5-chloro-2-oxo-1,2-dihydropyridine)-3-sulfonamido)-2,6-difluorophenyl)-N-methylimidazo[1,5-a]pyrazine-1-carboxamide] | < 6.00 | – |
| Cc1nnc(-c2ncn3cc(-c4c(F)ccc(NS(=O)(=O)c5cc(Cl)cnc5C)c4F)ncc23)[nH]1 [Compound 133, 5-chloro-N-[2,4-difluoro-3-[1-(5-methyl-4H-1,2,4-triazol-3-yl)imidazo[1,5-a]pyrazin-6-yl]phenyl]-2-methylpyridine-3-sulfonamide] | > 7.30 | – |
| Cc1nnc(-c2ncn3c2CC[C@@H](c2c(F)ccc(NS(=O)(=O)c4cc(F)cnc4C)c2F)C3)[nH]1 [Compound 134-1, N-[2,4-difluoro-3-[(6S)-1-(5-methyl-4H-1,2,4-triazol-3-yl)-5H,6H,7H,8H-imidazo[1,5-a]pyridin-6-yl]phenyl]-5-fluoro-2-methylpyridine-3-sulfonamide] | > 7.30 | – |
| Cc1nnc(-c2ncn3c2CC[C@H](c2c(F)ccc(NS(=O)(=O)c4cc(F)cnc4C)c2F)C3)[nH]1 [Compound 134-2, N-[2,4-difluoro-3-[(6R)-1-(5-methyl-4H-1,2,4-triazol-3-yl)-5H,6H,7H,8H-imidazo[1,5-a]pyridin-6-yl]phenyl]-5-fluoro-2-methylpyridine-3-sulfonamide] | > 7.30 | – |
| COc1ncc(C#N)cc1S(=O)(=O)Nc1ccc(F)c([C@@H]2CCc3c(-c4nnc(C)[nH]4)ncn3C2)c1F [Compound 135-1, 5-cyano-N-[2,4-difluoro-3-[(6S)-1-(5-methyl-4H-1,2,4-triazol-3-yl)-5H,6H,7H,8H-imidazo[1,5-a]pyridin-6-yl]phenyl]-2-methoxypyridine-3-sulfonamide] | – | 6.30 to 7.30 |
| COc1ncc(C#N)cc1S(=O)(=O)Nc1ccc(F)c([C@H]2CCc3c(-c4nnc(C)[nH]4)ncn3C2)c1F [Compound 135-2, 5-cyano-N-[2,4-difluoro-3-[(6R)-1-(5-methyl-4H-1,2,4-triazol-3-yl)-5H,6H,7H,8H-imidazo[1,5-a]pyridin-6-yl]phenyl]-2-methoxypyridine-3-sulfonamide] | – | 6.30 to 7.30 |
| Cc1nnc(-c2ncn3c2CC[C@@H](c2c(F)ccc(NS(=O)(=O)c4cc(Cl)cnc4C)c2F)C3)[nH]1 [Compound 136-1, 5-chloro-N-[2,4-difluoro-3-[(6S)-1-(5-methyl-4H-1,2,4-triazol-3-yl)-5H,6H,7H,8H-imidazo[1,5-a]pyridin-6-yl]phenyl]-2-methylpyridine-3-sulfonamide] | > 7.30 | – |
| Cc1nnc(-c2ncn3c2CC[C@H](c2c(F)ccc(NS(=O)(=O)c4cc(Cl)cnc4C)c2F)C3)[nH]1 [Compound 136-2, 5-chloro-N-[2,4-difluoro-3-[(6R)-1-(5-methyl-4H-1,2,4-triazol-3-yl)-5H,6H,7H,8H-imidazo[1,5-a]pyridin-6-yl]phenyl]-2-methylpyridine-3-sulfonamide] | > 7.30 | – |
| CNC(=O)c1ncn2cc(-c3c(Cl)ccc(NS(=O)(=O)c4cc(Cl)cnc4OC)c3F)ccc12 [Compound 137, 6-[6-chloro-3-(5-chloro-2-methoxypyridine-3-sulfonamido)-2-fluorophenyl]-N-methylimidazo[1,5-a]pyridine-1-carboxamide] | > 7.30 | – |
| CNC(=O)c1ncn2nc(-c3c(Cl)ccc(NS(=O)(=O)c4cc(Cl)cnc4C)c3F)ccc12 [Compound 138, 2-[6-chloro-3-(5-chloro-2-methylpyridine-3-sulfonamido)-2-fluorophenyl]-N-methylimidazo[1,5-b]pyridazine-5-carboxamide] | > 7.30 | – |
